Laboratory results as given in patent US20030216571A1, “Tricyclic compounds” (priority 1999, published 2003).

Key:
[1] = test system: Leukotriene D4 induced respiratory constriction; experiment: Leukotriene D4 induced respiratory constriction test; type: in vivo; conditions: p.o. 1 hr before i.v. LTD4; anesthetized Hartley male guinea pigs; respiratory inner pressure
Protocol: Leukotriene D4 Induced Respiratory Constriction Test
Respiratory constriction was measured by modifying the method of Konzett and Rossler (Arch. Exp. Pathol. Pharmakol., 195, pp. 71-74 (1940)). Hartley male guinea pigs (400 to 500 g body weight, Nippon SLC Co.) were anesthetized with pentobarbital (50 mg/kg, s.c.), and a cannula was inserted into the trachea to carry out artificial ventilation with an artificial ventilator (manufactured by Harvard Co., Model 683). An inner pressure of the respiratory tract was measured by a differential pressure transducer (Nihon Koden, TP-603T) connected to the respiratory cannula and it is used as an index of respiratory constriction.
LTD4 (0.03, 0.06, 0.13, 0.25, 0.5, 1 and 2 μg/kg, Sigma Co.) was intravenously administered from a cannula inserted into the right jugular vein from a low dose with an interval of 5 minutes to cause a respiratory constriction reaction and an increased amount of a respiratory inner pressure was measured. Test compound was suspended in 0.5% sodium carboxymethyl cellulose aqueous solution, and orally administered 1 hour before administration of LTD4. Animals were fasted for 24 hours before administration of the Test compound.
A2=(Dose of Compound administered)/{(ED50 of group to which Compound was added)/(ED50 of control group)−1}

Leukotriene D4 receptor = molecular target: T1, Leukotriene D4 receptor (Cavia porcellus, UniProt Q2NNR5); experiment: Leukotriene D4 receptor binding test; conditions: binding inhibition constant (Ki) vs [3H] LTD4 0.2 nM; lung cell membrane fraction from guinea pigs; 25° C. for 30 minutes; read-out: pKi value (converted)
T1 construct: As a receptor sample, a lung cell membrane fraction from guinea pigs was used; from tissue; host or cells: lung membrane fraction of Hartley male guinea pigs
T1 sequence (Q2NNR5 1-340): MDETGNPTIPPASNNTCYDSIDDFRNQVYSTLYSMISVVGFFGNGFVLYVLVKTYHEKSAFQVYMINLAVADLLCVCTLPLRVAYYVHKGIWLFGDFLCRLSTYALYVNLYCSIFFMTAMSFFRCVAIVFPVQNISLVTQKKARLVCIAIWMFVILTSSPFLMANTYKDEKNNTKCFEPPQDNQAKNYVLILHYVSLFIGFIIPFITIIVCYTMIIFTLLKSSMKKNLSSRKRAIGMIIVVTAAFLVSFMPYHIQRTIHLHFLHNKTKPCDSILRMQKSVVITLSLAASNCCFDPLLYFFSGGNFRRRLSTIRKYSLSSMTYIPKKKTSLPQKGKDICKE
Protocol: Leukotriene D4 Receptor Binding Test
As a receptor sample, a lung cell membrane fraction from guinea pigs was used. Preparation of the membrane fraction was carried out according to the method of Ahn et al. (Eur. J. Pharmacol., 127, 153-155 (1986)). Lungs of Hartley male guinea pigs (400 to 500 g body weight, Nippon SLC Co.) were extracted, and perfused with a physiological saline, and then, adding 10 mM of PIPES, 10 mM of MgCl2 and 10 mM of CaCl2 buffer (pH 7.5) to the lung tissue and the mixture was homogenized. This homogenate was centrifuged at 70,000 xg for 10 minutes to obtain a membrane fraction.
Leukotriene D4 (LTD4) recepter binding test was carried out according to the method of Aharony, et al. (J. Pharmacol. Expl.Ther., 243, 921-926 (1987)). To 0.42 mg of the receptor sample were added 10 mM of PIPES, 10 mM of MgCl2 and 10 mM of CaCl2 buffer (pH 7.5) to make the total amount of 480 μl, and 10 μl of [^3H] LTD4 (NEN Life Science Products Co.) and 10 μl of a Test compound in dimethylsulfoxide were added to the mixture, and the resulting mixture was incubated at 25° C. for 30 minutes. The mixtures thus incubated were filtered through a glass fiber filter (Whatman Co., GF/C) using cell harvester (Brandel Co., M-30R). The filter were washed with 10 mM of Tris. and 100 mM of NaCl buffer (pH 7.5), and 5 ml of a liquid scintillator (NACALAI TESQUE INC., clearsol I), and radioactivity was measured by a liquid scintillation analyzer (Packard Co., 2000CA). When a dissociation constant (Kd) of LTD4 was to be obtained, [^3H] LTD4 with 0.03 to 0.5 nM was used, and 1 μM of non-radioactive LTD4 was added. When a binding inhibition constant (Ki) of the Test compound is to be meaured, [^3H] LTD4 with 0.2 nM was used. Kd and Ki are calculated according to the method of Bennett et al. (Neurotransmitter Receptor Binding, 2nd ed., edited by H. I. Yamamura et al., pp. 61-89, Raven Press (1985)).

SMILES	A2 (dose of Test compound required for shifting two-times the LTD4 dose-reaction curve of control group to higher dose side) [1]	Ki (Leukotriene D4 receptor)	melting point
C[C@@H](CSC1c2ccccc2COc2ccc(/C=C/c3ccc4ccc(F)cc4n3)cc21)C(=O)[O-].[Na+] (stereo partly drawn) [Example 19, Sodium 3-{[2-[(E)-2-(7-fluoro-2-quinolinyl)ethenyl]-6,11-dihydrodibenz[b,e]oxepin-11-yl]thio}-2-(R)-methylpropionate]	2.4 µg/kg	0.2 nM	195 to 205 °C
C[C@@H](CSC1c2ccccc2COc2ccc(/C=C/c3ccc4ccc(Cl)cc4n3)cc21)C(=O)[O-].[Na+] (stereo partly drawn) [Example 23, Sodium 3-{[2-[(E)-2-(7-chloro-2-quinolinyl)ethenyl]-6,11-dihydrodibenz[b,e]oxepin-11-yl]thio}-2-(R)-methylpropionate]	5.7 µg/kg	0.501 nM	207 to 217 °C
O=C([O-])CCSC1c2ccccc2COc2ccc(/C=C/c3ccc4c(F)cc(F)cc4n3)cc21.[Na+] (stereo not drawn) [Example 32 (b), Sodium 3-{[2-[(E)-2-(5,7-difluoro-2-quinolinyl)ethenyl]-6,11-dihydrodibenz[b,e]oxepin-11-yl]thio}propionate]	9.4 µg/kg	0.794 nM	210 to 213 °C
O=C([O-])CCSC1c2ccccc2COc2ccc(/C=C/c3ccc4c(F)c(F)c(F)cc4n3)cc21.[Na+] (stereo not drawn) [Example 34 (b), Sodium 3-{[2-[(E)-2-(5,6,7-trifluoro-2-quinolinyl)ethenyl]-6,11-dihydrodibenz[b,e]oxepin-11-yl]thio}propionate]	7.7 µg/kg	0.631 nM	235 to 237 °C
O=C([O-])CC1(CSC2c3ccccc3COc3ccc(/C=C/c4ccc5c(F)c(F)c(F)cc5n4)cc32)CC1.[Na+] (stereo not drawn) [Example 35 (b), Sodium {1-[[2-[(E)-2-(5,6,7-trifluoro-2-quinolinyl)ethenyl]-6,11-dihydrodibenz[b,e]oxepin-11-yl]thiomethyl]cyclopropyl}acetate]	6.6 µg/kg	0.398 nM	195 to 198 °C
O=C([O-])CCSC1c2ccccc2CCc2ccc(/C=C/c3ccc4cc(F)c(F)cc4n3)cc21.[Na+] (stereo not drawn) [Example 40, Sodium 3-{[3-[(E)-2-(6,7-difluoro-2-quinolinyl)ethenyl]-10,11-dihydro-5H-dibenz[a,d]cyclohepten-5-yl]thio}propionate]	8.8 µg/kg	0.794 nM	179 to 182 °C
C[C@H](CSC1c2ccccc2COc2ccc(/C=C/c3ccc4cc(F)c(F)cc4n3)cc21)C(=O)[O-].[Na+] (stereo partly drawn) [Example 43, Sodium 3-{[2-[(E)-2-(6,7-difluoro-2-quinolinyl)ethenyl]-6,11-dihydrodibenz[b,e]oxepin-11-yl]thio}-2-(S)-methyl-propionate]	1.3 µg/kg	0.126 nM	193 to 216 °C
C[C@@H](CSC1c2ccccc2COc2ccc(/C=C/c3ccc4cc(F)c(F)cc4n3)cc21)C(=O)[O-].[Na+] (stereo partly drawn) [Example 44, Sodium 3-{[2-[(E)-2-(6,7-difluoro-2-quinolinyl)ethenyl]-6,11-dihydrodibenz[b,e]oxepin-11-yl]thio}-2-(R)-methylpropionate]	5 µg/kg	0.2 nM	196 to 220 °C
O=C([O-])CCSC1c2cc(/C=C/c3ccc4cc(F)c(F)cc4n3)ccc2COc2ccccc21.[Na+] (stereo not drawn) [Example 54 (b), Sodium 3-{[9-[(E)-2-(6,7-difluoro-2-quinolinyl)ethenyl]-6,11-dihydrodibenz[b,e]oxepin-11-yl]thio}propionate]	2.3 µg/kg	0.126 nM	> 300 °C
